Measured values: PubChem BioAssay AID246 (DTP/NCI, 2004)
Values joined by “and” are separate entries in the source; they are usually repeats but may differ in a detail not shown here. Equal values may be shown once. Toxic doses and inconclusive results are not listed. How the source made its calls: active means survival T/C of 150% or more; inactive means T/C below 125% in these data.

System: BDF1 mice, P1081 chloroleukemia ip, survival T/C
Assay: NCI In Vivo Anticancer Drug Screen. Data for tumor model P1081 Chloroleukemia (intraperitoneal) in B6D2F1 (BDF1) mice
Settings: endpoint: mean survival time, vehicle: saline, higher = longer survival
Procedure: The antitumor activity of compounds was measured in mice bearing transplantable tumors. Survival or tumor size were measured and the results are expressed as the measurement made in the treated group (T) divided by the measurement made in the vehicle treated control group (C). The tumor model used in this assay is P1081 Chloroleukemia (intraperitoneal) in B6D2F1 (BDF1) mice

Measured: T/C

O=P1(N(CCCl)CCCl)NCCCO1 (centres undefined)
inactive: dose: 3.12 mg/kg/injection, schedule: Q01DX Z (ip) 110 % of control | dose: 6.25 mg/kg/injection, schedule: Q01DX Z (ip) 119 % of control | dose: 6.3 mg/kg/injection, schedule: Q01DX Z (ip) 102 % of control | dose: 11.3 mg/kg/injection, schedule: Q01DX010 (ip) 113 % of control and 117 % of control (2×) | dose: 22.5 mg/kg/injection, schedule: Q01DX010 (ip) 107 % of control and 120 % of control and 121 % of control | dose: 45.0 mg/kg/injection, schedule: Q01DX010 (ip) 105 % of control and 107 % of control | dose: 90.0 mg/kg/injection, schedule: Q01DX010 (ip) 105 % of control and 90 % of control | dose: 100.0 mg/kg/injection, schedule: Q01DX Z (ip) 115 % of control | dose: 180.0 mg/kg/injection, schedule: Q01DX010 (ip) 87 % of control
